Consider four molecules from patent publication US12023335B2, “Method for treating pancreatic cancer” (PTC THERAPEUTICS, INC., priority 2018, dated 2024).

Data set [1] concerns the target T1, P-glycoprotein (Homo sapiens, UniProt P08183).
T1 construct: host or cells: MDCKII-mdr1 (canine kidney MDCKII cells; MDCKII-wt as control)
Description: P-glycoprotein substrate activity experiment (CC50 ratio MDCK-P-gp vs MDCK-WT). Format: in vitro ADME. As to conditions: 72 hours, CellTiter-Glo (FIG. 4b). As for the experimental part:
MDCKII-mdr1 and MDCKII-wt cells were purchased from the Netherlands Cancer Institute, NKI-AVL. The cells were cultivated in Dulbecco's modified essential medium (DMEM), supplemented with 10% FBS and 1% Penn-Strep, and used between passage 3-9. Cells were seeded at a density of 3×10^3 cells/well in 96-well tissue culture treated plates. After 4 hours to allow cells to attach, cells were treated with test compound in the presence or absence of the P-glycoprotein inhibitor Valspodar. The plates were incubated at 37° C., 5% CO2 for 72 hours and ATP was measured vialuminescence using CellTiter-Glo® reagent (Promega). (FIG. 4b)
(ATP-based viability assays read luminescence as a measure of living cells.)

For data set [2], the system named is advanced PDA. Conditions: cited from earlier work.
Data set [3] relates to PDA tumors in KPC mice. In words: KPC intervention/survival study. Format: in vivo. As to conditions: KPC mice (FIGS. 9a, 9b). As to the method: Tumor formation in KPC mice was monitored by weekly palpation until the detection of a mass. Upon positive palpation, the mass was monitored by twice weekly ultrasound until the tumor reached an enrollable size of 4-7 mm average diameter. Once enrollable, KPC mice were randomly enrolled into a treatment arm of the intervention study. Mice were treated with vehicle, Compound 1 (17 mg/kg, PO, b.i.w.), gemcitabine alone (100 mg/kg, IP, b.i.w.), or Compound 1+gemcitabine. Mice receiving Compound 1 also received gemcitabine vehicle (saline, IP, b.i.w.) at a volume (μL) of 50× body weight (g). Mice receiving gemcitabine also received Compound 1 vehicle (0.5% hydroxypropylmethylcellulose with 0.1% Tween80 (w/v), PO, b.i.w.) at a volume (μL) of 5.7× body weight (g). All drug and vehicle combinations were administered simultaneously.
Tumor ultrasonography and volume quantification were carried out as described in Sastra S A, Olive K P, Quantification of murine pancreatic tumors by high-resolution ultrasound, Methods Mol Biol 2013; 980:249-66. […]
To prepare samples for immunohistochemistry, tissues were first fixed overnight in 10% phosphate-buffered formalin and then stored in 70% ethanol for long-term storage. […] Next, antigen retrieval was carried out in an experimentally determined, antibody-specific antigen retrieval buffer (usually 10 mM citrate, pH 6.0 or 10 mM Tris, pH 10.0). […]

T1 sequence (P08183 whole entry): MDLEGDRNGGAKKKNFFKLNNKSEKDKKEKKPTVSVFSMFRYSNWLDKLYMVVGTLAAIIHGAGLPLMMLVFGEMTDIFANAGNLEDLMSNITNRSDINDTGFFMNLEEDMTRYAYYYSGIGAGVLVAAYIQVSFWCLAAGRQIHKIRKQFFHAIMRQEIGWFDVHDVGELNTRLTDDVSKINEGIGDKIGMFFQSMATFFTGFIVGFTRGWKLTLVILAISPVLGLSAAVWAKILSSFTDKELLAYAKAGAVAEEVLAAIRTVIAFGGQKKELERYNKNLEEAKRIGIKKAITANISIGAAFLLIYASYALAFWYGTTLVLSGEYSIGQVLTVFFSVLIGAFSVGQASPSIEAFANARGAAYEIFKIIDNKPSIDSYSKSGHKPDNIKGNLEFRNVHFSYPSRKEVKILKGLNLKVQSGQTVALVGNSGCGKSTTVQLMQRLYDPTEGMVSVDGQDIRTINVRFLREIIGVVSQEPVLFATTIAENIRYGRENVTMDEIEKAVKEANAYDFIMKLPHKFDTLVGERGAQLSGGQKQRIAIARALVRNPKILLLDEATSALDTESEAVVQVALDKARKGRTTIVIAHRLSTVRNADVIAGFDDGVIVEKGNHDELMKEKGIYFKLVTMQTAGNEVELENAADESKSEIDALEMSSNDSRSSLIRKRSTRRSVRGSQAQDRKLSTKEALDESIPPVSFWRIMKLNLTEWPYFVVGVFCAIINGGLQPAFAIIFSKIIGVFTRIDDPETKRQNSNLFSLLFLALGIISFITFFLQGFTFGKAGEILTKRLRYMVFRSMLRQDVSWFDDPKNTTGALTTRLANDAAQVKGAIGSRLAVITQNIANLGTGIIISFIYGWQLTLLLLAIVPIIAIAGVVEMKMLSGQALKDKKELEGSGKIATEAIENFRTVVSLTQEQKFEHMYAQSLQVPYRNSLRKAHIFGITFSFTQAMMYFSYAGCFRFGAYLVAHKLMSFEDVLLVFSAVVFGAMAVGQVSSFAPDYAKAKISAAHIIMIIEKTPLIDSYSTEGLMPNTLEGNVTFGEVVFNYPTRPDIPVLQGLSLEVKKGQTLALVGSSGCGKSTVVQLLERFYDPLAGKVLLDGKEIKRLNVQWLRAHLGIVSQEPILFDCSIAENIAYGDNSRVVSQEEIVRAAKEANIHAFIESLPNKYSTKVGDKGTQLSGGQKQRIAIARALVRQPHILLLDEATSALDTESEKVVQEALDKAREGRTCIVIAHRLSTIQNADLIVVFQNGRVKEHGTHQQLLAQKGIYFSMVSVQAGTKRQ

As to `Cc1nc2cc(F)c(F)cc2n1-c1cncc(Nc2ccc(C(F)(F)F)cc2)n1` [Compound 2, 6-(5,6-difluoro-2-methyl-1H-benzo[d]imidazol-1-yl)-N-(4-(trifluoromethyl)phenyl)pyrazin-2-amine, reference compound], the “PGP substrate activity (ratio of CC50 values MDCK-P-gp vs MDCK-WT)” value in data set [1] was “do not function as a PGP substrate”.
Turning to `C#Cc1cccc(Nc2ncnc3cc(OCCOC)c(OCCOC)cc23)c1` [Tarceva, erlotinib], the “additional survival benefit, average” value in data set [2] (when combined with gemcitabine) was 10 days.
As for `CN(C)CCCN1c2ccccc2Sc2ccc(Cl)cc21` [chlorpromazine, reference compound], the “PGP substrate activity (ratio of CC50 values MDCK-P-gp vs MDCK-WT)” value in data set [1] is reported as “do not function as a PGP substrate”.
In the case of `Nc1ccn([C@@H]2O[C@H](CO)[C@@H](O)C2(F)F)c(=O)n1` [gemcitabine, reference compound], the extension of survival result in data set [2] (national standard-of-care therapy) is “modestly extends survival by a few weeks”. For the same molecule, in data set [3], the “apoptotic cell population in stained tumor sections” value is “induced apoptotic cell population”.
